ChEMBL document CHEMBL1140726, “Discovery and biological evaluation of 5-aryl-2-furfuramides, potent and selective blockers of the Nav1.8 sodium channel with efficacy in models of neuropathic and inflammatory pain” (J Med Chem, 2008)
Values belong to the molecule of their own block, whether it stands above or below them.

Legend:
[1] = biological target: Sodium channel protein type 10 subunit alpha (Mus musculus, UniProt Q6QIY3); test: Inhibition of mouse recombinant Nav 1.8 channel expressed in HEK293 cells by isotopic efflux assay; type: cell-based
[2] = Aqueous solubility of the compound; type: physicochemical
[3] = Activity at rat dorsal root ganglion in inactivated state with prepulse voltage of -40 mV assessed as blockade of TTx-resistant sodium current at 0.3 uM by whole-cell patch clamp technique; type: functional
[4] = Activity at rat dorsal root ganglion in inactivated state with prepulse voltage of -40 mV assessed as blockade of TTx-resistant sodium current at 0.1 uM by whole-cell patch clamp technique; type: functional
[5] = Activity at rat dorsal root ganglion in resting state with prepulse voltage of -100 mV assessed as blockade of TTx-resistant sodium current at 0.3 uM by whole-cell patch clamp technique; type: functional
[6] = Activity at rat dorsal root ganglion in resting state with prepulse voltage of -100 mV assessed as blockade of TTx-resistant sodium current at 0.1 uM by whole-cell patch clamp technique; type: functional
[7] = biological target: T1, Sodium channel protein type 10 subunit alpha (Homo sapiens, UniProt Q9Y5Y9); test: Activity at human recombinant Nav 1.8 channel expressed in HEK293 cells in inactivated state with prepulse voltage of -40 mV assessed as blockade of TTx-resistant sodium current at 0.1 uM; type: cell-based
T1 sequence (Q9Y5Y9 whole entry, looked up): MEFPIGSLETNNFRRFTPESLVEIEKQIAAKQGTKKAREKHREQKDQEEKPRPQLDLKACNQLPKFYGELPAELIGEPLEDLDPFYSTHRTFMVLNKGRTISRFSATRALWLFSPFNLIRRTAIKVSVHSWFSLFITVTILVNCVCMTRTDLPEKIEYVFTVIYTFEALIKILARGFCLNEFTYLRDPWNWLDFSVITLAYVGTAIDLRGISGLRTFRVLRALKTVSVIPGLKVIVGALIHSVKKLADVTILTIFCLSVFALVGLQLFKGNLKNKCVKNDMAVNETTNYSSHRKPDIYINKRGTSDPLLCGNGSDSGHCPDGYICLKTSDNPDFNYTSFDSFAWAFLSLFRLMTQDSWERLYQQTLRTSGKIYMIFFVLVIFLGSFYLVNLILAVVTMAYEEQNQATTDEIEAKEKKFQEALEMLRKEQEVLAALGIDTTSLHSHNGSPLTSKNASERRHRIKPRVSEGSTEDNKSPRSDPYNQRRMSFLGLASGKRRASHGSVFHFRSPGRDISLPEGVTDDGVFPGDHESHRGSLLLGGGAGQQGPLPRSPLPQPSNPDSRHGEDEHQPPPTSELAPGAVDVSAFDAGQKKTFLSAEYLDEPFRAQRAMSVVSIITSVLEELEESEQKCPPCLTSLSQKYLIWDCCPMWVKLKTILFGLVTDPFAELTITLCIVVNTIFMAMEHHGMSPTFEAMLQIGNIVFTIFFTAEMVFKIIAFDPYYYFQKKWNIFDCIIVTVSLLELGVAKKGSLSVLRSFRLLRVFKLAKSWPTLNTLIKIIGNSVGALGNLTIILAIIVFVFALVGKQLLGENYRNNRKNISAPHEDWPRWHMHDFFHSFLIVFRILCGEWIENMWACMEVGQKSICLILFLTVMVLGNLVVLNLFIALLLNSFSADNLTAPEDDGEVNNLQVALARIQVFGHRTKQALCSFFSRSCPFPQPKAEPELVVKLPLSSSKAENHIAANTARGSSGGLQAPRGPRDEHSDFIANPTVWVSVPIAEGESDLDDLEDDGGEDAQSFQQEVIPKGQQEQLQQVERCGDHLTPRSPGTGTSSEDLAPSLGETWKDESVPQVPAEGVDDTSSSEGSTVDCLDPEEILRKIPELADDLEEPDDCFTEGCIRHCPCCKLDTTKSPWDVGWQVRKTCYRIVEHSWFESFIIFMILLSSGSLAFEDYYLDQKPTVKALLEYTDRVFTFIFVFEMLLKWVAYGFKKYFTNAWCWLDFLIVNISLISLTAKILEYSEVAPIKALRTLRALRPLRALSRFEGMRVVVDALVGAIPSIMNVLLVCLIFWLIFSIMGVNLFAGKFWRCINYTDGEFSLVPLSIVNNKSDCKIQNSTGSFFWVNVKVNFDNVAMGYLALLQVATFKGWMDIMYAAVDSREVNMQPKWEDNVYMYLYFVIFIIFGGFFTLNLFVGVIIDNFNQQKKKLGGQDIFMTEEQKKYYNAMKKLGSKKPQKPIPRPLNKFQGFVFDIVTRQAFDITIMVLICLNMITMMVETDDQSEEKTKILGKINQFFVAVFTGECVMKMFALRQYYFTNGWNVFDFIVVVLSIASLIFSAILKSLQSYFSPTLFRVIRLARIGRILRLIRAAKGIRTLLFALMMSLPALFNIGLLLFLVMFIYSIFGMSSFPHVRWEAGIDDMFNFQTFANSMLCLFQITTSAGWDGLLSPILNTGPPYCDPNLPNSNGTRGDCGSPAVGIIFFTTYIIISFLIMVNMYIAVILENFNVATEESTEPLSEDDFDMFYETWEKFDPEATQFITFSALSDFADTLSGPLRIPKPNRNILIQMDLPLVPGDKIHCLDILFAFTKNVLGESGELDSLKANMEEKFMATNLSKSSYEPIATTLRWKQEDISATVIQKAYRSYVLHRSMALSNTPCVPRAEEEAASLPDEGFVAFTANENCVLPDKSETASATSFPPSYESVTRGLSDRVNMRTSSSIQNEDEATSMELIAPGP

[8] = biological target: T1, Sodium channel protein type 10 subunit alpha; test: Activity at human recombinant Nav 1.8 channel expressed in HEK293 cells in inactivated state with prepulse voltage of -40 mV assessed as blockade of TTx-resistant sodium current at 0.03 uM; type: cell-based
[9] = biological target: T1, Sodium channel protein type 10 subunit alpha; test: Activity at human recombinant Nav 1.8 channel expressed in HEK293 cells in resting state with prepulse voltage of -100 mV assessed as blockade of TTx-resistant sodium current at 0.1 uM; type: cell-based
[10] = biological target: T1, Sodium channel protein type 10 subunit alpha; test: Activity at human recombinant Nav 1.8 channel expressed in HEK293 cells in resting state with prepulse voltage of -100 mV assessed as blockade of TTx-resistant sodium current at 0.03 uM; type: cell-based
[11] = biological target: T1, Sodium channel protein type 10 subunit alpha; test: Inhibition of human recombinant Nav 1.8 channel expressed in HEK293 cells at 0.1 uM; type: cell-based
[12] = biological target: T1, Sodium channel protein type 10 subunit alpha; test: Inhibition of human recombinant Nav 1.8 channel expressed in HEK293 cells at 0.03 uM; type: cell-based
[13] = biological target: Sodium channel protein type 2 subunit alpha (Homo sapiens) (UniProt Q99250); test: Inhibition of human Nav1.2 channel at 3 uM
[14] = biological target: Sodium channel protein type 2 subunit alpha (Homo sapiens) (UniProt Q99250); test: Inhibition of human Nav1.2 channel at 1 uM
[15] = biological target: Sodium channel protein type 3 subunit alpha (Homo sapiens) (UniProt Q9NY46); test: Inhibition of human Nav1.3 channel at 3 uM
Chain of Sodium channel protein type 3 subunit alpha (Homo sapiens) (Q9NY46 whole entry, looked up): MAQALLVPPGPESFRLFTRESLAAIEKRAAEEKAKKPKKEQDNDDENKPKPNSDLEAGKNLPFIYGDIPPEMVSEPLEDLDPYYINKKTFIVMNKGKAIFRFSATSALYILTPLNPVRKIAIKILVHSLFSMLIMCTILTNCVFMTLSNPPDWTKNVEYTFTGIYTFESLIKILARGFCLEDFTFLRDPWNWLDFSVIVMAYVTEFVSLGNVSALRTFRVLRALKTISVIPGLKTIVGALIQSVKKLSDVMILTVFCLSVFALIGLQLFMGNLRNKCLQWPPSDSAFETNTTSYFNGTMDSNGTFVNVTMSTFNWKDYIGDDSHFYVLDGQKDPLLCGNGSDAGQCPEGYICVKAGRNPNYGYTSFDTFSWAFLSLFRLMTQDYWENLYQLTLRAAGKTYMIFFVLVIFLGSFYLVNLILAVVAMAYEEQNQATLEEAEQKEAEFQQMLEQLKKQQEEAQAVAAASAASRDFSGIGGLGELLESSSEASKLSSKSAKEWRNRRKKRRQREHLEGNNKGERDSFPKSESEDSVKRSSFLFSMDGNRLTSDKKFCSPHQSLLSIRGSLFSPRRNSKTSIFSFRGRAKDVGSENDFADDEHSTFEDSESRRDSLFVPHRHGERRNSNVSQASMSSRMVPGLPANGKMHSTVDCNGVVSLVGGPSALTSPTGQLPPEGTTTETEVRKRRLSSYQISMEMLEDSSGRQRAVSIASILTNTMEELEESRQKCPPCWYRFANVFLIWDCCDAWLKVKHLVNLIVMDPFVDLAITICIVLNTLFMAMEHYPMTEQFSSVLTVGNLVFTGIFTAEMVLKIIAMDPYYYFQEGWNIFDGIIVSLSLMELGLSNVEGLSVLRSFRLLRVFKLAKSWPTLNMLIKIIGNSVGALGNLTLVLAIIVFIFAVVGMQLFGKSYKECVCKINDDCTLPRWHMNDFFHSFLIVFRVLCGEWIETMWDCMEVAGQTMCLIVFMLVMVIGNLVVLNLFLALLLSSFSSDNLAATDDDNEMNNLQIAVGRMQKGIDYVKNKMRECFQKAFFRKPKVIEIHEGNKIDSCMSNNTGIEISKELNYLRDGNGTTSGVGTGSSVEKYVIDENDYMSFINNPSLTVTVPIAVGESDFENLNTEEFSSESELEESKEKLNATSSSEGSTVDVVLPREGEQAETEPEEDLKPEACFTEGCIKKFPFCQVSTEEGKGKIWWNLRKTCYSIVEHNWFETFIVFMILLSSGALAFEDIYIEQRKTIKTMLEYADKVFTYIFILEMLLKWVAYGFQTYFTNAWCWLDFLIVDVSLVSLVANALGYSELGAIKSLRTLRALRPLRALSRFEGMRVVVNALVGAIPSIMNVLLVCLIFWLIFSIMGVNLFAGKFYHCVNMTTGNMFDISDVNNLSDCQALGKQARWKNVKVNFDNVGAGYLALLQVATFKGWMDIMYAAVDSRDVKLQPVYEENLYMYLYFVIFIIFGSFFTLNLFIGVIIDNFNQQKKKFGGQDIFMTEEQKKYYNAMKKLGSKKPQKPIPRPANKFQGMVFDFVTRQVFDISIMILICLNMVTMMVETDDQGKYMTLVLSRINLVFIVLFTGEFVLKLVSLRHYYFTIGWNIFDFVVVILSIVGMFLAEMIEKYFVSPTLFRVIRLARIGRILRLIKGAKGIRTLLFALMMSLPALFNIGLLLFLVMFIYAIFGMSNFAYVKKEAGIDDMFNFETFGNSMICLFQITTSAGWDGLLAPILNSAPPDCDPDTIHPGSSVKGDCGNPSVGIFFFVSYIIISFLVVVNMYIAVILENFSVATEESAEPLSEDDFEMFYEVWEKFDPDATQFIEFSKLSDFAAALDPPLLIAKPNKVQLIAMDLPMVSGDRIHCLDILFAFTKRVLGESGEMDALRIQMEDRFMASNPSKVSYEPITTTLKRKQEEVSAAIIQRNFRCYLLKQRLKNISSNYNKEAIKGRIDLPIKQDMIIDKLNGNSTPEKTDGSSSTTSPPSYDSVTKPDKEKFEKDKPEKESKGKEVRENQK

[16] = biological target: Sodium channel protein type 3 subunit alpha (Homo sapiens) (UniProt Q9NY46); test: Inhibition of human Nav1.3 channel at 1 uM
[17] = biological target: Nav1.5 (sodium channel protein type 5 subunit alpha) (Homo sapiens, UniProt Q14524); test: Inhibition of human Nav1.5 channel at 3 uM
[18] = biological target: Sodium channel protein type 9 subunit alpha (Homo sapiens) (UniProt Q15858); test: Inhibition of human Nav1.7 channel at 3 uM
[19] = biological target: Voltage-gated inwardly rectifying potassium channel KCNH2 (Homo sapiens, UniProt Q12809); test: Inhibition of hERG potassium channel expressed in CHO cells by isotope efflux assay
Chain of Voltage-gated inwardly rectifying potassium channel KCNH2 (Q12809 whole entry): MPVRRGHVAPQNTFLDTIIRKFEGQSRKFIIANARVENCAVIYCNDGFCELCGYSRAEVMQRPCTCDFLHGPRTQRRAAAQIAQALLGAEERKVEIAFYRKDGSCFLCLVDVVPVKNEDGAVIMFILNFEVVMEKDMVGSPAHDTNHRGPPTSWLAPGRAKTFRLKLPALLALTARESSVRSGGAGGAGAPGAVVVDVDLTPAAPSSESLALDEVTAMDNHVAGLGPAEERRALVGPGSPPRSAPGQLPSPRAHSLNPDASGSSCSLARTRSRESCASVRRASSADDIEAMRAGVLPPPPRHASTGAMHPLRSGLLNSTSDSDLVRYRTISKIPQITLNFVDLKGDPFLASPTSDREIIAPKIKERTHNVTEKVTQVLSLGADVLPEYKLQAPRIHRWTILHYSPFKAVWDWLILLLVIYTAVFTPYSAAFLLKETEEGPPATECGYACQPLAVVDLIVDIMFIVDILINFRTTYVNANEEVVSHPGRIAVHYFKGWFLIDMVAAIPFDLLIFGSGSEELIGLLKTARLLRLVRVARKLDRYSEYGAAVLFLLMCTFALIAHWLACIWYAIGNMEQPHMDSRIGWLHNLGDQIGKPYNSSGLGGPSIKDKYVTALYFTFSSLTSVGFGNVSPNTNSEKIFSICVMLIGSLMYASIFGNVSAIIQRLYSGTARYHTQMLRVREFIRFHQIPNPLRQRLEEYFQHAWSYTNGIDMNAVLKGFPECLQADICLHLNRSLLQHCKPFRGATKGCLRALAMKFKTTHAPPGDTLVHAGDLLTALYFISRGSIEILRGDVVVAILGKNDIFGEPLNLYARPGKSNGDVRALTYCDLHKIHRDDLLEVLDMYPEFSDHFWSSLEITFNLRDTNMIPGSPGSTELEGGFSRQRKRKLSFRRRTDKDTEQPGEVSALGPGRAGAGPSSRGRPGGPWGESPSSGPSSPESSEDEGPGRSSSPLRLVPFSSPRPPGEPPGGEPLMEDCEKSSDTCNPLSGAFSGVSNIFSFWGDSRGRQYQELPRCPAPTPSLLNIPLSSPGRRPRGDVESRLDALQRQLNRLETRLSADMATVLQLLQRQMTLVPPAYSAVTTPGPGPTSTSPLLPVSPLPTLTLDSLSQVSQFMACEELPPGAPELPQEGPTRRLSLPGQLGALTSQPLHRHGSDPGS

[20] = Activity at rat dorsal root ganglion in inactivated state with prepulse voltage of -40 mV assessed as blockade of TTx-resistant sodium current at 0.03 uM by whole-cell patch clamp technique; type: functional
[21] = Activity at rat dorsal root ganglion in inactivated state with prepulse voltage of -40 mV assessed as blockade of TTx-resistant sodium current at 0.003 uM by whole-cell patch clamp technique; type: functional
[22] = Activity at rat dorsal root ganglion in resting state with prepulse voltage of -100 mV assessed as blockade of TTx-resistant sodium current at 0.003 uM by whole-cell patch clamp technique; type: functional
[23] = biological target: T1, Sodium channel protein type 10 subunit alpha; test: Activity at human recombinant Nav 1.8 channel expressed in HEK293 cells in inactivated state with prepulse voltage of -40 mV assessed as blockade of TTx-resistant sodium current at 0.3 uM; type: cell-based
[24] = biological target: T1, Sodium channel protein type 10 subunit alpha; test: Activity at human recombinant Nav 1.8 channel expressed in HEK293 cells in resting state with prepulse voltage of -100 mV assessed as blockade of TTx-resistant sodium current at 0.3 uM; type: cell-based
[25] = biological target: T1, Sodium channel protein type 10 subunit alpha; test: Inhibition of human recombinant Nav 1.8 channel expressed in HEK293 cells at 0.3 uM; type: cell-based

- IC50 [1]: 0.48 µM
- solubility [2]: < 0.1 µg/mL
- inhibition [7]: 77%
- inhibition [8]: 68%
- inhibition [9]: 67%
- inhibition [10]: 61%
- inhibition [11]: 77%
- inhibition [12]: 68%
- inhibition [13]: 54%
- inhibition [14]: 33%
- inhibition [15]: 61%
- inhibition [16]: 17%
- inhibition [18]: 41%
SMILES: Cc1cccc(NC(=O)c2ccc(-c3ccc(Cl)cc3)o2)c1
- inhibition at 0.3 µM [3]: 60%
- inhibition at 0.1 µM [4]: 37%
- inhibition at 0.3 µM [5]: 18%
- inhibition at 0.1 µM [6]: 3%
- inhibition at 3 µM [17]: 51%
- IC50 [19]: 27 µM

- IC50 [1]: 7.5 µM
SMILES: Cc1cccc(NC(=O)c2ccc(-c3cccc(C(F)(F)F)c3)o2)c1

- IC50 [1]: 0.97 µM
SMILES: CN1CCOc2cc(NC(=O)c3ccc(-c4ccc(Cl)cc4)o3)ccc21

- IC50 [1]: 20 µM
SMILES: Cc1cccc(NC(=O)c2coc(-c3ccc(Cl)cc3)c2)c1

- IC50 [1]: 1.7 µM
SMILES: N#CCc1cccc(NC(=O)c2ccc(-c3ccc(Cl)cc3)o2)c1

- IC50 [1]: 0.43 µM
SMILES: CCOc1ccc(-c2ccc(C(=O)Nc3cccc(C)c3)o2)cc1

- IC50 [1]: 3.4 µM
SMILES: Cc1cccc(N(C)C(=O)c2ccc(-c3ccc(Cl)cc3)o2)c1

- IC50 [1]: 1.1 µM
SMILES: Cc1ccccc1CNC(=O)c1ccc(-c2ccc(Cl)cc2)o1

- IC50 [1]: 4.6 µM
SMILES: CN1CCc2ccc(NC(=O)c3ccc(-c4ccc(Cl)cc4)o3)cc21

- IC50 [1]: 1.9 µM
SMILES: O=C(NCCc1ccccc1Cl)c1ccc(-c2ccc(Cl)cc2)o1

SMILES: Cc1cccc(NC(=O)c2ccc(-c3ccc(S(C)(=O)=O)cc3)o2)c1
- IC50 [1]: > 30 µM

- IC50 [1]: 30 µM
SMILES: Cc1cccc(NC(=O)c2ccc(-c3cccc(C#N)c3)o2)c1

- IC50 [1]: 5.2 µM
SMILES: CN(C)C1CCN(C(=O)c2ccc(-c3ccc(Cl)cc3)o2)CC1

- IC50 [1]: > 30 µM
SMILES: O=C(c1ccc(-c2ccc(Cl)cc2)o1)N1CCOCC1

- IC50 [1]: 5.3 µM
SMILES: Cc1cccc(NC(=O)c2cc(-c3ccc(Cl)cc3)co2)c1

- IC50 [1]: 3.1 µM
SMILES: O=C(Nc1ccc2cc[nH]c2c1)c1ccc(-c2ccc(Cl)cc2)o1

- IC50 [1]: 10 µM
SMILES: O=C(Nc1ccc2ncccc2c1)c1ccc(-c2ccc(Cl)cc2)o1

- IC50 [1]: 2.5 µM
SMILES: O=C(Nc1cccc(C2=NCCO2)c1)c1ccc(-c2ccc(Cl)cc2)o1

- IC50 [1]: 2.5 µM
SMILES: Cc1cc(NC(=O)c2ccc(-c3ccc(Cl)cc3)o2)ccn1

- IC50 [1]: 4.6 µM
SMILES: O=C(Nc1cccc(N2CCOCC2)c1)c1ccc(-c2ccc(Cl)cc2)o1

- IC50 [1]: 2.9 µM
- inhibition [8]: 56%
- inhibition [23]: 70%
- inhibition [10]: 27%
- inhibition [24]: 66%
- inhibition [12]: 55%
- inhibition [25]: 70%
- inhibition [13]: 38%
- inhibition [15]: 37%
- inhibition [18]: 44%
SMILES: CN1CCCc2cc(NC(=O)c3ccc(-c4ccc(Cl)cc4)o3)ccc21
- inhibition at 0.03 µM [20]: 79%
- inhibition at 0.003 µM [21]: 44%
- inhibition at 0.3 µM [5]: 28%
- inhibition at 0.003 µM [22]: 31%
- inhibition at 3 µM [17]: 71%
- IC50 [19]: 5.3 µM
